Among the test systems are K-562 leukemia; 786-0 renal; SW-620 colon; MDA-MB-231 breast; NCI-H460 lung; SNB-75 CNS; OVCAR-5 ovarian; COLO 205 colon; OVCAR-8 ovarian; EKVX NSCLC.
Common to all, as to assay: NCI tumour cell line growth inhibition, 48 h

Values joined by “and” are separate entries in the source; they are usually repeats but may differ in a detail not shown here. Identical values can stand only once.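 All cell lines were grown in 96-well plates and treated with compound for 48 hours. GI50 is the concentration that inhibits growth by half. The concentration for full growth arrest is given as TGI.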

Consider `CONC(C)=O`, for which the TGI with K-562 leukemia, with 786-0 renal, in the assay on SW-620 colon, in the assay on MDA-MB-231 breast, with NCI-H460 lung and with SNB-75 CNS was more than 100 µM throughout. In addition, the TGI in the assay on OVCAR-5 ovarian, in the assay with COLO 205 colon, in the assay on OVCAR-8 ovarian and in the assay on EKVX NSCLC was more than 100 µM each time.
With `CCCCCCCCC/C(=N\NC(=O)c1ccncc1)c1ccc(O)c(O)c1O`, the GI50 is 0.498 µM in the assay with K-562 leukemia; 0.216 µM with 786-0 renal; 0.365 µM in the assay with SW-620 colon; 0.116 µM with MDA-MB-231 breast; 0.0705 µM with NCI-H460 lung; 0.631 µM with SNB-75 CNS. Further, the GI50 with OVCAR-5 ovarian was 0.765 µM; in the assay on COLO 205 colon, 0.617 µM; with OVCAR-8 ovarian it was 0.179 µM; in the assay with EKVX NSCLC, 0.244 µM. In addition, the TGI with K-562 leukemia is more than 100 µM; in the assay with 786-0 renal it was 5.75 µM; in the assay with SW-620 colon, 28.3 µM; in the assay with MDA-MB-231 breast it was 31.5 µM; in the assay on NCI-H460 lung it was 1.1 µM; in the assay with SNB-75 CNS it was more than 100 µM. Besides, the TGI in the assay on OVCAR-5 ovarian is 78.6 µM; in the assay with COLO 205 colon it was 17.4 µM; with OVCAR-8 ovarian, more than 100 µM; with EKVX NSCLC, more than 100 µM.
Turning to `CN(C)CCCCC(C(=O)CBr)(c1ccccc1)c1ccccc1`, the GI50 with K-562 leukemia was 2.08 µM; in the assay with 786-0 renal, 2.12 µM; with SW-620 colon it was 1.67 µM; in the assay with MDA-MB-231 breast, 1.89 µM; in the assay with NCI-H460 lung it was 6.36 µM; in the assay on SNB-75 CNS it was 1.87 µM. Further, the GI50 is 3.06 µM with OVCAR-5 ovarian, 1.78 µM in the assay on COLO 205 colon, 2.52 µM with OVCAR-8 ovarian and 2.22 µM in the assay with EKVX NSCLC. Besides, the TGI amounted to 5.48 µM with K-562 leukemia; 4.37 µM in the assay on 786-0 renal; 5.58 µM in the assay on SW-620 colon; 4.49 µM with MDA-MB-231 breast; 23 µM in the assay with NCI-H460 lung; 13.9 µM with SNB-75 CNS. The TGI with OVCAR-5 ovarian was 10.9 µM; in the assay with COLO 205 colon, 3.95 µM; in the assay with OVCAR-8 ovarian, 8.48 µM; in the assay on EKVX NSCLC, 7.42 µM.
For `COC(=O)C1=COC(C)C2CN3CCc4c([nH]c5cc(OC)c(OC)cc45)C3CC12` (centres undefined), the TGI with K-562 leukemia, in the assay with 786-0 renal, with SW-620 colon, with MDA-MB-231 breast, in the assay with NCI-H460 lung and in the assay with SNB-75 CNS was more than 100 µM each time. The TGI is more than 100 µM with OVCAR-5 ovarian; > 100 µM and 86.6 µM with COLO 205 colon; more than 100 µM in the assay with OVCAR-8 ovarian; more than 100 µM in the assay on EKVX NSCLC. Also, the GI50 was > 100 µM and 39.1 µM in the assay with SW-620 colon; 67.1 µM and 22.4 µM with NCI-H460 lung; 38.7 µM and > 100 µM with SNB-75 CNS; > 100 µM and 45.1 µM with OVCAR-8 ovarian.
With `O=[N+]([O-])c1ccc(C2CC(c3ccccc3)=Nc3ccccc3S2)cc1` (centres undefined), the GI50 in the assay with K-562 leukemia was 3.87 µM; with 786-0 renal, more than 100 µM; with SW-620 colon it was 2.75 µM; in the assay on MDA-MB-231 breast it was more than 100 µM; with NCI-H460 lung, more than 100 µM; in the assay with SNB-75 CNS it was 8.55 µM. Moreover, the GI50 was more than 100 µM with OVCAR-5 ovarian, more than 100 µM in the assay with COLO 205 colon, 52.4 µM in the assay on OVCAR-8 ovarian and more than 100 µM with EKVX NSCLC. Moreover, the TGI is more than 100 µM in the assay on K-562 leukemia; more than 100 µM in the assay on 786-0 renal; 11.1 µM in the assay with SW-620 colon; more than 100 µM in the assay on MDA-MB-231 breast; more than 100 µM with NCI-H460 lung; more than 100 µM with SNB-75 CNS. In addition, the TGI with OVCAR-5 ovarian, in the assay with COLO 205 colon, in the assay with OVCAR-8 ovarian and in the assay with EKVX NSCLC was more than 100 µM each time.
Regarding `Cc1ccc(-c2cc3c4c(nc5ccccc53)C(=O)c3cccnc3-c4n2)cc1`, the GI50 was 0.39 µM with K-562 leukemia; 18.2 µM with 786-0 renal; 5.7 µM in the assay on SW-620 colon; 16.8 µM with MDA-MB-231 breast; 3.14 µM in the assay on NCI-H460 lung; 13.1 µM in the assay on SNB-75 CNS. The GI50 in the assay with OVCAR-5 ovarian was 23 µM; in the assay on COLO 205 colon it was 16.3 µM; in the assay with OVCAR-8 ovarian it was 11.4 µM; in the assay on EKVX NSCLC it was 23.4 µM. The TGI in the assay on K-562 leukemia was more than 100 µM; in the assay on 786-0 renal it was 52.5 µM; with SW-620 colon, more than 51.1 µM; in the assay on MDA-MB-231 breast it was more than 69.9 µM; in the assay with NCI-H460 lung, 16.4 µM; with SNB-75 CNS, more than 53.6 µM. In addition, the TGI with OVCAR-5 ovarian was determined as 60.9 µM; in the assay with COLO 205 colon, 30.1 µM; with OVCAR-8 ovarian it was 37.6 µM; with EKVX NSCLC it was 59.1 µM.
In the case of `CC1(C)CC[C@]2(C(=O)O)CC[C@]3(C)C(=CC[C@@H]4[C@@]5(C)C[C@H](O)[C@H](O)[C@@](C)(C(=O)O)[C@@H]5CC[C@]43C)[C@@H]2C1`, the TGI in the assay with K-562 leukemia, in the assay on 786-0 renal, in the assay with SW-620 colon, with MDA-MB-231 breast, with NCI-H460 lung and in the assay with SNB-75 CNS was more than 100 µM each time. Further, the TGI in the assay on OVCAR-5 ovarian, in the assay on COLO 205 colon, in the assay with OVCAR-8 ovarian and in the assay with EKVX NSCLC was more than 100 µM in each case.
Regarding `S=C(NCCNC(=S)[S][Sn]([c]1ccccc1)([c]1ccccc1)[c]1ccccc1)[S][Sn]([c]1ccccc1)([c]1ccccc1)[c]1ccccc1`, the GI50 in the assay with K-562 leukemia was 0.0168 µM; in the assay on 786-0 renal it was 0.0366 µM; in the assay with SW-620 colon, 0.014 µM; in the assay with MDA-MB-231 breast, 0.0207 µM; in the assay on NCI-H460 lung, 0.0169 µM; in the assay on SNB-75 CNS, 0.0162 µM. Besides, the GI50 in the assay with OVCAR-5 ovarian is 0.0496 µM; in the assay on COLO 205 colon it was 0.0166 µM; in the assay with OVCAR-8 ovarian it was 0.0445 µM; with EKVX NSCLC it was 0.0304 µM. Moreover, the TGI came to 0.144 µM with K-562 leukemia; 0.104 µM in the assay with 786-0 renal; 0.0379 µM with SW-620 colon; 0.0957 µM in the assay on MDA-MB-231 breast; 0.0575 µM in the assay with NCI-H460 lung; 0.087 µM in the assay with SNB-75 CNS. Also, the TGI with OVCAR-5 ovarian is 0.123 µM; in the assay on COLO 205 colon, 0.0411 µM; in the assay on OVCAR-8 ovarian it was 0.202 µM; in the assay with EKVX NSCLC it was 0.129 µM.
Consider `CCc1nc(N)nc(N)c1-c1ccc2nnn(O)c2c1`, for which the TGI in the assay on K-562 leukemia, in the assay with 786-0 renal, with SW-620 colon, with MDA-MB-231 breast, with NCI-H460 lung and in the assay on SNB-75 CNS was more than 100 µM each time. Moreover, the TGI with OVCAR-5 ovarian, with COLO 205 colon, in the assay with OVCAR-8 ovarian and with EKVX NSCLC was more than 100 µM throughout.
`O=C(NC(=O)c1ccccc1[N+](=O)[O-])Nc1ccc(Oc2ncc(Cl)cn2)c([N+](=O)[O-])c1`: the TGI in the assay with K-562 leukemia was more than 100 µM; in the assay on 786-0 renal, more than 100 µM; in the assay with SW-620 colon it was more than 100 µM; in the assay on MDA-MB-231 breast it was 63.1 µM; with NCI-H460 lung, more than 100 µM; in the assay on SNB-75 CNS, 0.313 µM. Further, the TGI was more than 100 µM in the assay on OVCAR-5 ovarian, 6.06 µM in the assay with COLO 205 colon, more than 100 µM in the assay with OVCAR-8 ovarian and more than 100 µM in the assay with EKVX NSCLC.
Take `COc1ccc2c(c1)oc(=O)c1cc(OC)ccc12`: the GI50 in the assay on K-562 leukemia, in the assay on 786-0 renal, in the assay on SW-620 colon, in the assay with MDA-MB-231 breast, in the assay with NCI-H460 lung and in the assay on SNB-75 CNS was more than 100 µM in each case. The GI50 in the assay with OVCAR-5 ovarian is more than 100 µM; in the assay with COLO 205 colon it was more than 100 µM; in the assay on OVCAR-8 ovarian, more than 100 µM; in the assay on EKVX NSCLC, 8.99 µM. Moreover, the TGI in the assay with K-562 leukemia, with 786-0 renal, in the assay on SW-620 colon, in the assay with MDA-MB-231 breast, in the assay with NCI-H460 lung and in the assay with SNB-75 CNS was more than 100 µM each time. Besides, the TGI in the assay with OVCAR-5 ovarian, in the assay on COLO 205 colon, in the assay with OVCAR-8 ovarian and with EKVX NSCLC was more than 100 µM in each case.

For the origin of these results see PubChem BioAssay (NCI).
